{
  "source": "patent US8030335B2",
  "about": "“Use of liver X receptor agonists” (Laboratoires Fournier S.A., priority 2005, dated 2011)",
  "key": {"[1]": {"test_system": "NOD mice", "test": "Insulitis development in NOD mice (pancreatic histology)", "assay_type": "in vivo, mouse", "from_the_text": "NOD (non-obese diabetes) mice is an experimental model of spontaneous resembling human Type I (insulin-dependent) diabetes, which results from the progressive islet invasion and beta cells destruction by autoreactive T cells. This spontaneous diabetes model offers a unique opportunity of studying the autoreactive T cells involved in the process of beta cell destruction and of settling preventive strategies before clinical onset of the disease. Non fasted mice were killed two days after the last administration of compounds. Pancreatic glands were excised and processed for conventional histological studies after fixation in Bouin's alcoholic solution. Five μm sections were stained with haematoxylin-eosin as described previously by Thivolet C. H. et al., 1991, Diabetologia, 34, 314-319. The evolution of insulitis was analysed in pancreas. […] State 4 was not observed in 8 weeks old mice, this state appeared at around 9-10 weeks. NOD mice of 4 weeks old have been treated for 4 weeks (5 days/7) with vehicle or GW3965 at 50 mg/kg. Pancreatic histological studies have been carried out as described above."}, "[2]": {"test_system": "pancreatic sections", "test": "Apoptosis by TUNEL staining on pancreatic sections", "assay_type": "in vivo, rat", "conditions": "8 weeks-old ZDF rats, 10 mg/kg for 4 weeks, vehicle 4.55±1.29%, p<0.05", "procedure": "Islet cell apoptosis was determined by transferase-mediated dUTP nick-end labeling (TUNEL) staining. Cell death was identified by 3′ in situ end labeling of fragmented DNA with biotinylated deoxyuridine-triphosphate. Each pancreatic piece was cut throughout its length into 5 μm thick sections, which were collected on gelatin-coated slides. Four sections at regular intervals were picked in both head and tail pieces. After digestion with Proteinase K (2 μg/ml; Sigma), sections were consecutively washed in TdT buffer (0.5 mol/l cacodylate [pH 6.8], 1 mmol/l cobalt chloride, 0.15 mol/l NaCl) and then incubated at 37° C. with TdT (25U; Boehringer-Mannheim, Mannheim, Germany) and biotinylated dUTP (1 nmol/μl). After washing in TB buffer (300 mmol/l NaCl, 30 mmol/l sodium citrate) to terminate the reaction, incorporation of biotinylated dUTP was detected by a modification of the avidin-biotin complex method. Horseradish peroxidise-conjugated streptavidin-biotin complex was applied (Vector Laboratories). The sections were then developed using DAB as chromogen and lightly counterstained with hematoxylin and mounted in dePex (BDH Laboratory, Poole, England).\nApoptosis have also been estimated using the TUNEL staining method on pancreatic sections of 5 animals of 8 weeks-old ZDF rats treated with GW3965 at 10 mg/kg for 4 weeks."}, "[3]": {"test_system": "isolated pancreatic islets", "test": "Apoptosis by measurement of DNA fragments (Cell Death Detection ELISA) in isolated islets", "assay_type": "in vivo, rat", "conditions": "islets of ZDF rats, 10 mg/kg oral, overnight culture in RPMI; vehicle 43.1±9.2%, fa+ 19.9±6.2%", "procedure": "Rat pancreatic islets were prepared by collagenase digestion and density gradient purification. The enzyme collagenase type XI (Sigma Chemical, St. Louis, Mo.) was used for digestion of the pancreas. After an overnight fast, animals were deeply anesthetized and killed. Then, the pancreatic duct was cannulated, and 20 ml of the digestion solution at 37° C. (collagenase 30 mg/ml dissolved in 20 ml Hanks' balanced salt solution [HBSS]) (Sigma Chemical, St. Louis, Mo.) was slowly injected to distend the tissue. After distension, the pancreas was placed into a 20-ml glass beaker containing 5 ml of the digestion solution at 37° C. that was set into a shaking water bath at 37° C. for 8 minutes. After centrifugation at 633 g for 1 min at 4° C., the supernatant was removed and the islets were washed three times with HBSS by centrifugation at 633 g for 1 min at 4° C. For the purification procedure, the islets were resuspended in 4 ml of 80% Histopaque 1.077 (Sigma) and 4 ml HBSS. […] The apoptosis of islet cells was assessed by the Cell Death Detection enzyme-linked immunosorbent assay (ELISA) plus Kit from Roche, according to the procedures recommended by the manufacturer and applied to rat islet experiment. […] At the end of the 5-min incubation, absorbance of samples was read spectrophotometrically at 405 nm. The results were expressed as a percent of internal standard (nucleosomal particles). […]"}, "[4]": {"test_system": "PDX1 mRNA", "test": "Real-time quantitative RT-PCR of PDX1 in isolated islets of treated ZDF rats", "assay_type": "in vivo, rat", "conditions": "normalized to 18S rRNA, vehicle ZDF 0.17, fa+ 0.38±0.21", "procedure": "Pancreatic and duodenal homeobox gene 1, Pdx1 (Genbank: NM_022852) and facilitated glucose transporter, member 2, Glut2 (Genbank: NM_012879) gene expression were measured by real time quantitative RT-PCR. Total RNAs from fresh isolated rat pancreatic islets were prepared using Rneasy 96 Kit according to the manufacturer's protocol (Qiagen, France), treated with Dnase I to remove contaminating DNA (Stratagene, France), and quantified using the iScript cDNA Synthesis and iQ SYBR Green Supermix kits (Biorad, france). Real-time quantitative RT-PCR was performed using the iCycler Detection System instrument and software (Bio-Rad). As the predicted size of the amplified cDNAs and the Tm values for the primers were similar, uniform amplification conditions were applied (ie. annealing at 60° C.). Specificity of amplified products was monitored by performing melting curves at the end of each amplification. Expression levels were quantified (total RNA units) by generating a six-point serial standard curve. RNA samples were normalized for comparison by determining 18S rRNA levels. In this example, the mRNA expression of PDX1 and Glut2 was determined. As previously described, PDX1 and Glut2 are markers of the regeneration of beta cells. […] PDX1 and Glut2 mRNA expression was increased in islets isolated from GW3965-compared to vehicle-treated ZDF rats. […]"}},
  "data": [
    {"compound": "O=C(O)Cc1cccc(OCCCN(Cc2cccc(C(F)(F)F)c2Cl)CC(c2ccccc2)c2ccccc2)c1", "note": "[GW3965]", "values": [
      {"measurement": "normal islets in the pancreas", "setting": "[1]; NOD mice of 4 weeks old, 50 mg/kg for 4 weeks (5 days/7), control 32%", "value": 94, "unit": "%"},
      {"measurement": "insulitis (lymphocytes infiltration)", "setting": "[1]; NOD mice, 50 mg/kg for 4 weeks, pancreatic sections", "value": "appears protected against the lymphocytes infiltration"},
      {"measurement": "% of apoptosis by TUNEL staining", "setting": "[2]", "value": "1.41±0.96", "unit": "%"},
      {"measurement": "apoptosis, DNA fragments as percent of internal standard", "setting": "[3]", "value": "34.0±7.5", "unit": "%"},
      {"measurement": "PDX1 mRNA expression", "setting": "[4]", "value": "0.35±0.11"}
    ]}
  ]
}
